Measured values taken from patent US20250099517A1, “Use of Lactobacillus reuteri Y7 strain for prevention or treatment of ocular diseases” (Taipei Medical University, priority 2023, published 2025).

How the values were obtained:
[1] = water intakes of mice during the experiment; assay type: in vivo, C57BL/6 mice; conditions: LU, lutein 6.15 mg/kg bw oral daily, blue light, Mean±S.E.M., n=6
Procedure: In the present invention, six-week-old male C57BL/6 mice were placed in a breeding cage in which the following feeding conditions were kept: temperature, 22±2° C., humidity, 55±5%, and the light-dark cycle of 12-hour light and 12-hour dark. The mice were fed with fodders at the adaptive phase for one week; general solid fodders for test animals were administered to mice of the control group and mice during the adaptive phase. The initial day was defined as Day 0 when the adaptive phase for the mice was over. From the next week, the mice were interfered with samples under test and exposed to blue light. During the experiments, the mice were monitored for weights as well as water intakes and checked for any physiological change. The data for experiments through electroretinography (ERG), fndus photography (FP), fundus fluorescein angiograph (FFA), spectral-domain optical coherence tomography (SD-OCT) and intraocular pressure (IOP) were collected at Day 0, Day 21 and Day 35, as shown in FIG. 1 for the experimental process. The C57BL/6 mice, which weighed between 23 and 25 g, were divided into seven groups randomly. In each group, the six mice induced by blue light successfully were incorporated in experiments. The samples dissolved in deuterium-depleted water (DDW) were fed to mice through oral tubes once a day. The groups were named and introduced as follows: • (1) Solvent not classified group (NC): The mice were fed with 0.2 ml deuterium-depleted water (DDW) through tubes; • (2) Negative control group (Blue light (BL)): The mice were fed with 0.2 ml deuterium-depleted water (DDW) through tubes and exposed to blue light; • (3) Low-dosage Y7 probiotics group […]): The mice were fed with low-dosage Y7 probiotics (probiotic counts of 1.0×10^8 CFU/ml dissolved in 0.2 ml DDW per day) and exposed to blue light; • (4) High-dosage Y7 probiotics group […]): The mice were fed with high-dosage Y7 probiotics (probiotic counts of 1.0×10^9 CFU/ml dissolved in 0.2 ml DDW per day) and exposed to blue light; • (5) Positive control group (lutein (LU)): The mice were fed with lutein and exposed to blue light. The recommended human dosage of lutein is 30 mg. The mouse cage (48×25×20 cm) placed inside a stainless ventilated box was equipped with blue light boards as blue light sources around and above. In the experiment of animals exposed to blue light, six-week-old mice staying in the mouse cage were fed with drinking water as well as fodders and exposed to 400 Lux blue light illumination under the light-dark cycle of 12-hour light and 12-hour dark. The experiment was aimed at causing mice' late dry macular disease induced by chronic light injuries for simulating a human being's macular disease after long-term exposure to short-wavelength blue light from 3C products in daily life. All data written as the form of mean±standard error of the mean (S.E.M.) were used in the statistical analysis through the one-way ANOVA and the Newman-Keuls test; p<0.05 denoted statistical difference. In the experiment, the software for the statistical analysis was Graph pad Prism (v9.2.0). The data such as food intake, water intake, body weight, organ weight and other clinical examination data were analyzed with the one-way ANOVA.

[2] = system: catalase (CAT); test: serum antioxidant enzyme activity by ELISA: CAT; assay type: in vivo, C57BL/6 mice
Procedure: The C57BL/6 mice, which weighed between 23 and 25 g, were divided into seven groups randomly. In each group, the six mice induced by blue light successfully were incorporated in experiments. The samples dissolved in deuterium-depleted water (DDW) were fed to mice through oral tubes once a day. The groups were named and introduced as follows: • (1) Solvent not classified group (NC): The mice were fed with 0.2 ml deuterium-depleted water (DDW) through tubes; • (2) Negative control group (Blue light (BL)): The mice were fed with 0.2 ml deuterium-depleted water (DDW) through tubes and exposed to blue light; • (3) Low-dosage Y7 probiotics group (Y7L): The mice were fed with low-dosage Y7 probiotics (probiotic counts of 1.0×10^8 CFU/ml dissolved in 0.2 ml DDW per day) and exposed to blue light; • (4) High-dosage Y7 probiotics group (Y7H): The mice were fed with high-dosage Y7 probiotics (probiotic counts of 1.0×10^9 CFU/ml dissolved in 0.2 ml DDW per day) and exposed to blue light; • (5) Positive control group (lutein (LU)): The mice were fed with lutein and exposed to blue light. The recommended human dosage of lutein is 30 mg.
The mouse cage (48×25×20 cm) placed inside a stainless ventilated box was equipped with blue light boards as blue light sources around and above. […]
The performance of antioxidant enzymes in serums was analyzed through the enzyme-linked immunosorbent assay (ELISA).

water intakes of mice ([1]; Day7) | water intakes of mice ([1]; Day14) | water intakes of mice ([1]; Day21) | water intakes of mice ([1]; Day28) | water intakes of mice ([1]; Day35) | Compound | activity of catalase (CAT) compared with the BL group ([2]; Y7H high-dosage group) | activity of catalase (CAT) compared with the BL group ([2]; Y7L low-dosage group)
3.69 ± 0.86 | 4.17 ± 1.05 | 4.71 ± 0.42 | 3.65 ± 0.61 | 3.88 ± 0.31 | CC1=C[C@H](O)CC(C)(C)[C@H]1/C=C/C(C)=C/C=C/C(C)=C/C=C/C=C(C)/C=C/C=C(C)/C=C/C1=C(C)C[C@@H](O)CC1(C)C [lutein, reference compound] |  | 
 |  |  |  |  | Lactobacillus reuteri Y7 [Y7 probiotics] | increased significantly | increased significantly
